Measurements reported in article PMC6036575, “Reincarnation of Bacteriocins From the Lactobacillus Pangenomic Graveyard” (Frontiers in Microbiology, 2018).
“Also recorded” adds a separate entry of the source.

What was measured:
32 indicator strains = assay: Well diffusion assays against the panel of 32 indicator strains; assay type: cell-based; settings: for Total no. of strains inhibited: of 32 indicator strains, supernatant of E. coli transformants encoding the pediocin leader; for antimicrobial activity / spectrum, in words: crude supernatant from the E. coli heterologous host, pediocin PA-1 leader
Method: (§1) Bacteriocin activity was determined using well diffusion assays (WDAs). For Tuner^TM (DE3) E. coli transformants both the cell supernatant and the cell lysates were analyzed for antimicrobial activity, whilst only the supernatants were analyzed for L. paracasei NFBC338 cells. Supernatant was isolated by centrifugation of the liquid cultures at 4000 RCF for 15 min, these supernatants were then filtered using 0.20 μm membrane filters. For cell lysates, cell pellets were resuspended in 5 ml of phosphate-buffered saline (PBS), cells were lysed by sonication using a MSE Soniprep 150 (MSE, London, UK). Lysates were subsequently centrifuged at 4000 RCF for 15 min and the resulting supernatants were filtered using 0.20 μm membrane filters. For the indicator plates, 50 μl of an overnight culture of the indicator strain was added to the appropriate media containing 1% agar. Plates were cooled and 7 mm wells were bored in the agar. 50 μl of the cell supernatants/lysates being tested were added to each well and plates were refrigerated for 2 h prior to incubation under the appropriate conditions. WDAs were carried out in triplicate for each bacteriocin.
(§2) E. coli Tuner^TM (DE3) cells transformed with the newly constructed plasmids were grown in LB supplemented with glucose to maintain a low-copy number and bacteriocin expression was induced by co-incubation of the clones with 50 μM IPTG for 3 h. WDAs were used to identify bacteriocin activity from the bacterial supernatants and cell lysates. Bacteriocins were exclusively found in the bacterial supernatant. Antimicrobial activity was lower in cases where the native leader of the bacteriocin sequence was used; with only four of the nine strains displaying zones of inhibition against a sensitive indicator (pediocin 20336a has an identical leader to pediocin PA-1). For expression in L. paracasei NFBC338, cells were transformed by electroporation with the bacteriocin-containing pNZ44 vectors. Positive transformants were grown overnight and the neutralized cell free supernatant was used to identify bacteriocin production in WDAs.
(§3) The spectrum of activity was determined using WDAs against 32 indicator strains for bacteriocins produced by the E. coli transformants encoding the pediocin leader (Table 2). Despite being of the same class of bacteriocins, these novel antimicrobials display a varying spectrum of activity. […] Many of these bacteriocins, however, can inhibit a wide range of Gram positive bacteria including potential pathogens such as Enterococcus faecalis. As with most class IIa bacteriocins, these also display potent anti-listerial activity.

[1] = test system: Li. monocytogenes DPC 6894; assay: Well diffusion assay, spectrum of bacteriocin activity; assay type: cell-based; settings: 50 μl filtered supernatant of E. coli Tuner (DE3) transformants encoding the pediocin PA-1 leader, 7 mm wells, triplicate
Method: as §1, §2, §3

[2] = test system: Li. monocytogenes DPC 6893; assay: as above; assay type: cell-based; settings: 50 μl filtered supernatant of E. coli Tuner (DE3) transformants encoding the pediocin PA-1 leader, 7 mm wells, triplicate
Method: as §1, §2, §3

[3] = test system: P. ethanolidurans DSM 22301; assay: as above; assay type: cell-based; settings: 50 μl filtered supernatant of E. coli Tuner (DE3) transformants encoding the pediocin PA-1 leader, 7 mm wells, triplicate
Method: as §1, §2, §3

[4] = test system: Enterococcus faecalis LMG 7397; assay: as above; assay type: cell-based; settings: 50 μl filtered supernatant of E. coli Tuner (DE3) transformants encoding the pediocin PA-1 leader, 7 mm wells, 1% agar, triplicate
Method: as §1, §2, §3

L. apodemi DSM 16654 = assay: as above; assay type: cell-based; settings: 50 μl filtered supernatant of E. coli Tuner (DE3) transformants encoding the pediocin PA-1 leader, 7 mm wells, triplicate
Method: as §1, §2, §3

L. nodensis DSM 16982 = assay: as above; assay type: cell-based; settings: 50 μl filtered supernatant of E. coli Tuner (DE3) transformants encoding the pediocin PA-1 leader, 7 mm wells, triplicate
Method: as §1, §2, §3

L. crustorum JCM 15951 = assay: as above; assay type: cell-based; settings: 50 μl filtered supernatant of E. coli Tuner (DE3) transformants encoding the pediocin PA-1 leader, 7 mm wells, triplicate
Method: as §1, §2, §3

[5] = test system: E. saccharolyticus DPC 4902; assay: as above; assay type: cell-based; settings: 50 μl filtered supernatant of E. coli Tuner (DE3) transformants encoding the pediocin PA-1 leader, 7 mm wells, triplicate
Method: as §1, §2, §3

P. clausenii DSM 14800 = assay: as above; assay type: cell-based; settings: 50 μl filtered supernatant of E. coli Tuner (DE3) transformants encoding the pediocin PA-1 leader, 7 mm wells, triplicate
Method: as §1, §2, §3

E.mundtii LMG 10748 = assay: as above; assay type: cell-based; settings: 50 μl filtered supernatant of E. coli Tuner (DE3) transformants encoding the pediocin PA-1 leader, 7 mm wells, triplicate
Method: as §1, §2, §3

L. mali DSM 20444 = assay: as above; assay type: cell-based; settings: 50 μl filtered supernatant of E. coli Tuner (DE3) transformants encoding the pediocin PA-1 leader, 7 mm wells, triplicate
Method: as §1, §2, §3

[6] = test system: Listeria innocua DPC 3572; assay: as above; assay type: cell-based; settings: 50 μl filtered supernatant of E. coli Tuner (DE3) transformants encoding the pediocin PA-1 leader, 7 mm wells, triplicate
Method: as §1, §2, §3

L. plantarum DSM 13273 = assay: as above; assay type: cell-based; settings: 50 μl filtered supernatant of E. coli Tuner (DE3) transformants encoding the pediocin PA-1 leader, 7 mm wells, triplicate
Method: as §1, §2, §3

[7] = test system: Li. monocytogenes WSL 1416; assay: as above; assay type: cell-based; settings: 50 μl filtered supernatant of E. coli Tuner (DE3) transformants encoding the pediocin PA-1 leader, 7 mm wells, triplicate
Method: as §1, §2, §3

L. innocua DPC3572 = assay: Bacteriocin activity (BU/ml), dilution series in well diffusion assay; assay type: cell-based, Listeria innocua; settings: for Bacteriocin Activity (BU/ml) vs. L. innocua DPC3572: inverse of the highest dilution of bacterial supernatant showing activity in a well diffusion assay
Method: as §1, §2

L. amylophilus DSM 20509 = assay: Well diffusion assay, spectrum of bacteriocin activity; assay type: cell-based; settings: 50 μl filtered supernatant of E. coli Tuner (DE3) transformants encoding the pediocin PA-1 leader, 7 mm wells, triplicate
Method: as §1, §2, §3

[8] = test system: Pediococcus stilesii DSM 18001; assay: as above; assay type: cell-based; settings: 50 μl filtered supernatant of E. coli Tuner (DE3) transformants encoding the pediocin PA-1 leader, 7 mm wells, triplicate
Method: as §1, §2, §3

[9] = produced by E. coli Tuner (DE3)
[10] = produced by L. paracasei NFBC338, neutralized cell free supernatant

Substance	Total no. of strains inhibited (32 indicator strains)	radius of the zone of inhibition [1] [millimeters]	radius of the zone of inhibition [2] [millimeters]	radius of the zone of inhibition [3] [millimeters]	radius of the zone of inhibition [4] [millimeters]	radius of the zone of inhibition (L. apodemi DSM 16654) [millimeters]	radius of the zone of inhibition [5] [millimeters]	radius of the zone of inhibition (E.mundtii LMG 10748) [millimeters]	radius of the zone of inhibition (L. mali DSM 20444) [millimeters]	radius of the zone of inhibition [6] [millimeters]	radius of the zone of inhibition [7] [millimeters]	Bacteriocin Activity (BU/ml) vs. L. innocua DPC3572 (L. innocua DPC3572; [9])	Bacteriocin Activity (BU/ml) vs. L. innocua DPC3572 (L. innocua DPC3572; [10])	other results
SRYYGNGITCG-KHKCTVNWGQAWTCGVNRLANFGH–G————–NC— (bicyclic or more) [Agilicin (Agl), novel pediocin-like class IIa bacteriocin encoded by L. agilis DSM 20509, heterologously expressed]	14	4 ± 0	2 ± 0	3.33 ± 0.47	2.17 ± 0.24	2.67 ± 0.47	3.33 ± 0.47	3 ± 0	4.50 ± 0.41	5 ± 0	2 ± 0.82	++ (++ = 320 – 2560 BU/ml)	++ (++ = 320 – 2560 BU/ml)	radius of the zone of inhibition (L. nodensis DSM 16982): 3.50 ± 0.71 millimeters; radius of the zone of inhibition (L. crustorum JCM 15951): 0.33 ± 0.47 millimeters; radius of the zone of inhibition (P. clausenii DSM 14800): 0.67 ± 0.47 millimeters; radius of the zone of inhibition (L. plantarum DSM 13273): 0.33 ± 0.47 millimeters
–KNYGNGVYCTKKHGYKVDWGQAWSIIGNNSAANSTTRGAAGWKSK—- [Aquaticin (Aqu), novel pediocin-like class IIa bacteriocin encoded by L. aquaticus DSM 21051; peptide not identified by MALDI-TOF]	0	–	–	–	–	–	–	–	–	–	–	–	–	antimicrobial activity / spectrum, in words (32 indicator strains; listed as Aquaticin): failed to display antimicrobial activity; antimicrobial activity / spectrum, in words (32 indicator strains; listed as aquaticin): activity was not seen
–KYYGNGVHCG-KKTCYVDWGQATASIGKIIVNGWTQHGPWAHR———- (disulfide) [Penocin A (PenA), previously characterized class IIa bacteriocin, here encoded by P. pentosaceus DSM 20336, heterologously expressed]	12	0.67 ± 0.47	0.67 ± 0.47	2 ± 1.41	0.67 ± 0.47	–	1.33 ± 0.94	1.33 ± 0.94	1.50 ± 1.08	2.50 ± 0.41	0.67 ± 0.47	++ (++ = 320 – 2560 BU/ml)	+ (+ = 0 – 160 BU/ml)	radius of the zone of inhibition (P. clausenii DSM 14800): 1 ± 0.82 millimeters; radius of the zone of inhibition (L. amylophilus DSM 20509): 0.67 ± 0.47 millimeters; radius of the zone of inhibition [8]: 0.67 ± 0.47 millimeters
–KYYGNGVSCG-KHSCSVDWGKATTCTINNSAMAWATSGHQGNHKC—- (bicyclic or more) [Rennicin B (RenB), novel pediocin-like class IIa bacteriocin encoded by L. rennini DSM 20253, heterologously expressed]	0	–	–	–	–	–	–	–	–	–	–	–	+ (+ = 0 – 160 BU/ml)	antimicrobial activity / spectrum, in words (32 indicator strains): failed to display antimicrobial activity; also recorded: did not display activity; level of activity when expressed in L. paracasei NFBC338, in words (L. innocua DPC3572; expressed in L. paracasei NFBC338): equal levels of activity compared to rennicin A
–KYYGNGVSCG-KHTCKVNWGQAWNESVNRWGNSWVNGLTGLRQH— (disulfide) [Futcin (Fut), novel pediocin-like class IIa bacteriocin encoded by L. futsaii JCM 17355, heterologously expressed]	–	0.83 ± 0.24	–	3 ± 0	1.67 ± 0.47	0.33 ± 0.47	2 ± 0	1.83 ± 0.24	2.17 ± 0.85	2.00 ± 0	1 ± 0	+ (+ = 0 – 160 BU/ml)	–	Total no. of strains inhibited (32 indicator strains; listed as Fut): 9; Total no. of strains inhibited (32 indicator strains; listed as futcin): nine
–KYYGNGVSCS-KHSCSVDWGKALTCTINNGAMAWTTGGHQGNHKC—- (bicyclic or more) [Rennicin A (RenA), novel pediocin-like class IIa bacteriocin encoded by L. rennini DSM 20253, heterologously expressed]	10	2 ± 1.41	2 ± 0	1.50 ± 0.41	3 ± 0	0.67 ± 0.47	2.33 ± 0.47	3.33 ± 0.47	1 ± 0	6.33 ± 0.94	2.67 ± 0.47	+ (+ = 0 – 160 BU/ml)	+ (+ = 0 – 160 BU/ml)	–
—-KYYGNGLHIPKHGKPYINWGQAIQSIGKISYHGWVNGITSGAAGVGRH [Acidicin (Acd), novel pediocin-like class IIa bacteriocin encoded by L. acidipiscis DSM 15836, heterologously expressed]	1	–	–	–	–	–	–	–	1.50 ± 0.41	–	–	–	–	antimicrobial activity / spectrum, in words (32 indicator strains): displayed activity exclusively against L. mali
